# Entries after “also recorded” stand apart in the source; their conditions may differ.
# Test system: human Vα24+/Vβ11+ iNKT cells
# Test: Stimulation of human Vα24+/Vβ11+ NKT cell populations in PBMC culture, flow cytometry
# Type: cell-based
# Settings: PBMC from a normal healthy donor, 100 nM, 14 days of culture
# Experimental: Peripheral blood mononuclear cells (PBMC) from a normal healthy donor were incubated with each individual compound at a final concentration of 100 nM. After 14 days of culture, NKT cell frequencies were determined by flow cytometry. NKT cell frequencies were defined as the percentage of Vα24+/V−β11+ cells among gated lymphocytes in the upper right (UR) corner for each case. Shown here are the profiles of PBMC harvested from 14-day cultures containing (a) vehicle alone (DMSO, UN), or (b) 100 nM of α-GalCer (KS), (c) analog 18 (DABB), or (d) analog 19 (DAGBB), as indicated.
# The less toxic product mixtures were further examined. These sample mixtures after simple filtration through silica gel were submitted to analysis with ESI-MS. […] Among them, 4-benzyl benzoic acid derived amide product showing the most significant signals was resynthesized in both its ceramidic form 18 and galactosyl ceramidic form 19 (Scheme 6). The subsequent validation experiment was performed by MTT assay and flowcytotmetry (FIG. 4). […] This confirmed the important role played by sugar moieties.
structure (smiles),measurement,value
"CCCCCCCCCCCCCC[C@@H](O)[C@@H](O)[C@H](CO[C@H]1O[C@H](CNC(=O)c2ccc(CCCC)cc2)[C@H](O)[C@H](O)[C@H]1O)NC(=O)c1ccc(CCCC)cc1 [analog 19, 4-butyl-N-(((2R,3R,4S,5R,6S)-6-(((2S,3S,4R)-2-(4-butylbenzamido)-3,4-dihydroxyoctadecyl)oxy)-3,4,5-trihydroxytetrahydro-2H-pyran-2-yl)methyl)benzamide]",stimulation of Vα24+/Vβ11+ iNKT cell population,stimulats human iNKT cell population; also recorded: stimulative
